Measured values from article PMC8904520, “Characterization of a small-molecule inhibitor targeting NEMO/IKKβ to suppress colorectal cancer growth” (Signal Transduction and Targeted Therapy, 2022).
Several values for one entry are separate records, joined by “and”; a condition that tells them apart may be missing. Identical values can stand only once. Like-named read-outs stand apart in the source and are kept apart here.

What was measured:
[1] = target: T1, NEMO/IKKβ complex (MBP-IKKβ (701–745) / GST-NEMO (1–196)) (Homo sapiens, UniProt Q9Y6K9); assay: SPR competition assay of NEMO/IKKβ binding
T1 construct: made in house; host or cells: E. coli BL21(DE3)
T1 sequence (Q9Y6K9 1-196, one chain of several): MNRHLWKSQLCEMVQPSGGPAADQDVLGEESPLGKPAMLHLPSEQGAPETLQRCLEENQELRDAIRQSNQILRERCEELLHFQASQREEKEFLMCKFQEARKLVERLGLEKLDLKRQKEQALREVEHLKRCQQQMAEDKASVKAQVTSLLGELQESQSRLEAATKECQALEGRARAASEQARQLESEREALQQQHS
Experimental: MBP-IKKβ was immobilized on the surface of the CM5 chip using the amine-coupling approach at a flow rate of 10 μL/min in 10 mM sodium acetate buffer (pH 5.0). The sensor surface was activated with a 7 min injection of a mixture comprising 50 mM N-hydroxysuccinimide (NHS) and 200 mM 1-ethyl-3-(3- dimethylaminopropyl) carbodiimide (EDC). Then, 33 μg/mL of IKKβ was injected to reach the target level of 500 RU and the surface was blocked with 1 M ethanolamine, pH 8.5. A series of concentrations of NEMO or SHK were injected into the flow system and analyzed for 90 or 120 s, followed by dissociation for 90 or 600 s. All binding analyses was performed in phosphate-buffered saline (PBS, pH 7.4) with 0.05% (v/v) Tween-20 at 25 °C. Prior to analysis, double reference subtractions were made to eliminate bulk refractive index changes, injection noise, and data drift. The binding affinity was determined by fitting to a Langmuir 1:1 binding model in the Biacore Evaluation software (GE Healthcare).
(§1) According to the instructions from GE, an anti-GST antibody was immobilized onto the CM5 chip surface. The sensor surface was activated with NHS and EDC, after which 15 μg/mL of anti-GST antibody was injected for 420 s and the surface was blocked with 1 M ethanolamine, pH 8.5. […] For each analyte, 50 μg/mL of GST-G was captured for 60 s and 10 mM glycine-HCl (pH 2.1) was used to regenerate the surface. MBP-B was analyzed with 120 s injection and 120 s dissociation. A series of SHK concentrations was analyzed with 90 s injection and 90 s dissociation.
For the competition assay, we tried two methods with MBP-IKKβ and GST-NEMO immobilized separately. Mixtures including series concentrations of SHK and 1 μM GST-NEMO were tested on MBP-IKKβ-immobilized surface; while other mixtures including series concentrations of SHK and 0.5 μM MBP-IKKβ were tested on GST-NEMO-captured surface. […] By recording the binding responses at 120 s, the inhibition effects of SHK were calculated to determine the IC50.

GST-NEMO (1–196) [2] = target: T2, GST-NEMO (1–196) (Homo sapiens, UniProt Q9Y6K9); assay: SPR affinity assay on captured GST-NEMO; type: binding
T2 construct: assays using MBP-IKKβ (701–745) and GST-NEMO (1–196) peptides; made in house; host or cells: E. coli BL21(DE3)
T2 sequence (Q9Y6K9 1-196): as the sequence (Q9Y6K9 1-196, one chain of several) above
Experimental: as §1

MBP-IKKβ (701–745) = target: T3, MBP-IKKβ (701–745) (Homo sapiens, UniProt O14920); assay: MST binding assay to IKKβ
T3 construct: made in house; host or cells: E. coli BL21(DE3)
T3 sequence (O14920 701-745): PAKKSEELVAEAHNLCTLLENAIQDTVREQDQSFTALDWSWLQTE

GST-NEMO (1–196) [3] = target: T2, GST-NEMO (1–196); assay: MST binding assay to NEMO
[4] = target: T4, NEMO/IKKβ interaction (GST-NEMO1–196 / biotinylated IKKβ peptide) (Homo sapiens, UniProt Q9Y6K9); assay: FRET assay of NEMO/IKKβ binding; settings: 10 nM GST-NEMO1–196, 200 nM biotinylated IKKβ peptide, read-out: IC50 for impairing NEMO/IKKβ interaction
T4 construct: made in house; host or cells: E. coli BL21(DE3) (GST-NEMO)
T4 sequence (Q9Y6K9 1-196): as the sequence (Q9Y6K9 1-196, one chain of several) above
Experimental: A FRET assay was used to detect the effects of SHK on NEMO/IKKβ binding. 10 nM GST-NEMO1–196 was bound to 200 nM biotinylated IKKβ peptide in binding buffer (50 Mm Tris-HCl, 150 mM NaCl, and 1x cocktail, pH 7.4), and increasing amounts of SHK were titrated into the mixture, incubated for 30 min at room temperature. The detection agent (50 nM streptavidin-conjugated APC and 10 nM LANCE^TM Europium-W1024 labeled anti-GST, Perkin Elmer) was incubated for 30 min at room temperature, and the FRET signal was read on a multifunctional microplate reader (BioTek Synergy NEO).

CCD841 CoN cells = assay: CCK-8 cell viability assay, normal colonic epithelial cells; type: cell-based, human; settings: 0.5–5 μM, 48 h
Experimental: Cell viability was determined using the CCK-8 assay. Briefly, 5×10³ cells were seeded into 96-well culture plates, allowed to adhere for overnight, and then changed to fresh medium containing various concentrations of SHK (0, 0.5, 1, 2 and 5 µM) dissolved in DMSO (final concentration, 0.1%). After incubation for 48 h, the CCK-8 reagent was added, and the absorbance was measured at 450 nm using an EnSpire® Multimode Plate Reader (Perkin Elmer, USA). The cell viability in the vehicle control groups was defined as 100%. Each assay was carried out in triplicate.

LoVo cells = assay: Real-time cell growth (xCELLigence) in IKKβ or NEMO depleted or mutant LoVo cells; type: cell-based, human; settings: SHK 1 μM

SMILES: CC(C)=CC[C@@H](O)C1=CC(=O)c2c(O)ccc(O)c2C1=O [SHK, Shikonin]
- IC50 ([1]; IC50 for impairing binding of GST-NEMO (1–196) to MBP-IKKβ (701–745), MBP-IKKβ immobilized, SHK pre-incubated with 1 μM GST-NEMO for 30 min): 176 ± 26.4 nM
- IC50 ([1]; IC50 for inhibiting binding of MBP-IKKβ (701–745) to GST-NEMO (1–196), GST-NEMO immobilized, SHK pre-incubated with 0.5 μM MBP-IKKβ for 30 min): 171 ± 35.6 nM
- IC50 ([1]; summary value as quoted in abstract, introduction, discussion, read-out: IC50 for destabilizing / inhibiting NEMO/IKKβ complex formation): 174 nM and ~170 nM
- Kd (GST-NEMO (1–196) [2]): 8290 ± 2380 nM
- Kd (MBP-IKKβ (701–745)): 15200 ± 4000 nM
- Kd (GST-NEMO (1–196) [3]): 14200 ± 1700 nM
- IC50 [4]: 231 ± 9.39 nM
- growth inhibitory effect in normal colonic epithelial cells (CCD841 CoN cells): absent
- inhibitory effect on growth of single point mutation cells compared with wild-type (LoVo cells; LoVo cells rescued with L737A, M94A, Q98A or R101A): significantly weakened
- inhibitory effect on growth of IKKβ or NEMO depletion cells (LoVo cells; LoVo cells with shRNA): significantly weakened
